Residues, ends and D or L forms follow the SMILES beside them.
Key:
[1] = Biofilm cell mortality, BacTiter-Glo luminescent assay; type: cell-based, Pseudomonas aeruginosa; settings: 24 h formed biofilm; 4 h at 37° C.; 10% Triton X-100 as maximum reference; N.D. = not detected at 50 μM; read-out: Biofilm cell mortality (%max)
Method: (§1) Bacterial viability was assayed using the BacTiter-Glo™ microbial cell viability kit. Briefly, protein/peptides were dissolved in 10 mM sodium phosphate, 0.1M buffer, pH 7.5, serially diluted from 50 to 0.1 μM and tested in a 96-well microtiter plate containing P. aeruginosa planktonic (OD600˜0.2) or 24 h formed biofilm for 4 h at 37° C. Fifty microliters of BacTiter-Glo™ reagent was added to each well according to the manufacturer's instructions and incubated at room temperature for 15 min. Luminescence was read on a Victor3 plate reader with a 3-s integration time. Fifty percent (ED50) and total inhibitory concentrations were calculated by fitting the data to a dose-response curve.
(§2) As a first approach, the biofilm cell viability was monitored using the BacTiter-Glo™ luminescent assay. Therefore, the antimicrobial action of the studied AMPs was determined on already established P. aeruginosa biolfilms (FIG. 1 and Table 6). […] However, for all the active peptides, the concentrations needed to produce an equivalent effect in biofilms were between 2 to 10 times higher than in planktonic cultures. […] At the same time, we applied the crystal violet technique to assess the peptide ability to disperse pre-established P. aeruginosa biofilms.
(§3) Biofilm formation assay was modified from the previously described protocol (Huedo P. et al. 2014). Briefly, overnight cultures of P. aeruginosa were centrifuged at 5000×g for 5 min, washed and adjusted to an OD600=0.1 in tryptic soy medium (TSB). Two hundred microliters of the bacterial suspension were dispensed in each well of a polystyrene 96-well microtiter plate (Greiner Bio-one, France). The plate was incubated at 37° C. on an orbital shaker (30 rpm). The media was exchanged with fresh pre-warmed TSB after 4 h, in order to remove the non-attached bacteria. After 24 h incubation, the formation of biofilm was then evaluated using the crystal violet staining technique (Stepanovic S. et al. 2000). Briefly, the plates were washed three times with PBS, fixed at 60° C. for 1 h, and stained for 15 min with 200 μl of 0.1% crystal violet. After the dye was discarded, plates were rinsed in PBS and allowed to dry for 30 min at 37° C. Crystal violet was dissolved in 250 μl of 95% ethanol for 15 min, and the OD570 of the extracted dye was measured using a Victor3 plate reader (Perkin-Elmer, Waltham, Mass.).

[2] = system: pre-established P. aeruginosa biofilm; assay: as above; type: cell-based, Pseudomonas aeruginosa; settings: 24 h formed biofilm; 4 h at 37° C.; 10% Triton X-100 as maximum reference; N.D. = not detected at 50 μM
Method: as §1, §2, §3

## CC[C@H](C)[C@H](NC(=O)CNC(=O)[C@@H](NC(=O)[C@H](CCCCN)NC(=O)[C@H](CCCCN)NC(=O)[C@H](Cc1ccccc1)NC(=O)[C@H](CC(C)C)NC(=O)[C@H](CCCCN)NC(=O)[C@H](Cc1c[nH]c2ccccc12)NC(=O)[C@@H](N)CCCCN)[C@@H](C)CC)C(=O)NCC(=O)N[C@@H](C)C(=O)N[C@H](C(=O)N[C@@H](CC(C)C)C(=O)N[C@@H](CCCCN)C(=O)N[C@H](C(=O)N[C@@H](CC(C)C)C(=O)N[C@H](C(=O)N[C@H](C(=O)NCC(=O)N[C@@H](CC(C)C)C(=O)N1CCC[C@H]1C(=O)N[C@@H](C)C(=O)N[C@@H](CC(C)C)C(=O)N[C@H](C(=O)N[C@@H](CO)C(N)=O)[C@@H](C)CC)[C@@H](C)O)[C@@H](C)O)C(C)C)C(C)C [CA-M]
[1]
  mortality: 54.3 ± 5.51%

## CC[C@H](C)[C@H](NC(=O)[C@H](CCC(N)=O)NC(=O)CN)C(=O)N[C@H](C(=O)N[C@@H](CC(N)=O)C(=O)N[C@@H](CC(C)C)C(=O)N[C@@H](CCCCN)C(=O)N[C@@H](C)C(=O)N[C@@H](CO)C(=O)N[C@@H](CC(C)C)C(=O)N[C@@H](CC(=O)O)C(=O)N[C@@H](CC(C)C)C(=O)N[C@@H](CC(C)C)C(N)=O)[C@@H](C)CC [GL-13, GQIINLKASLDLL-NH2] (H-GQIINLKASLDLL-NH2)
[2]
  Biofilm cell mortality (%max): unable to perform any cell mortality

## CC[C@H](C)[C@H](NC(=O)[C@H](CCCCN)NC(=O)[C@H](CCC(=O)O)NC(=O)[C@H](CCCCN)NC(=O)[C@H](CO)NC(=O)[C@H](CCCCN)NC(=O)[C@H](CCCNC(=N)N)NC(=O)[C@H](Cc1ccccc1)NC(=O)[C@H](Cc1ccccc1)NC(=O)[C@H](CC(=O)O)NC(=O)CNC(=O)[C@H](CC(C)C)NC(=O)[C@@H](N)CC(C)C)C(=O)NCC(=O)N[C@@H](CCCCN)C(=O)N[C@@H](CCC(=O)O)C(=O)N[C@@H](Cc1ccccc1)C(=O)N[C@@H](CCCCN)C(=O)N[C@@H](CCCNC(=N)N)C(=O)N[C@H](C(=O)N[C@H](C(=O)N[C@@H](CCC(N)=O)C(=O)N[C@@H](CCCNC(=N)N)C(=O)N[C@H](C(=O)N[C@@H](CCCCN)C(=O)N[C@@H](CC(=O)O)C(=O)N[C@@H](Cc1ccccc1)C(=O)N[C@@H](CC(C)C)C(=O)N[C@@H](CCCNC(=N)N)C(=O)N[C@@H](CC(N)=O)C(=O)N[C@@H](CC(C)C)C(=O)N[C@H](C(=O)N1CCC[C@H]1C(=O)N[C@@H](CCCNC(=N)N)C(=O)N[C@H](C(=O)N[C@@H](CCC(=O)O)C(=O)N[C@@H](CO)C(N)=O)[C@@H](C)O)C(C)C)[C@@H](C)CC)C(C)C)[C@@H](C)CC [LL-37]
[1]
  mortality: 64 ± 3.33%

Source: patent US10487117B2, “Antimicrobial peptide for nosocomial infections” (priority 2015, dated 2019)
